Legend:
[1] = target: Aβ1–42 peptide (Homo sapiens, UniProt P05067); test: Self-mediated Aβ1–42 aggregation assay; type: biochemical; conditions: for inhibition of Aβ fibrils: ThT fluorescence, after 24 hours of equimolar treatment with Aβ1–42
[2] = target: CA-II; conditions: read-out: Ki CA-II inhibition; cited from earlier work
[3] = target: human CA-II (Homo sapiens, UniProt P00918); test: In vitro human CA-II inhibition assay; type: biochemical
[4] = target: electric eel acetylcholinesterase (eeAChE) (Electrophorus electricus, UniProt O42275); test: Acetylcholinesterase inhibition assay; type: biochemical; conditions: for IC50: IC50 (μM) ± SEM eeAChE, mean ± SEM, n = 3; for SI (Selectivity index): Selectivity index = IC50 of BChE/IC50 of AChE
[5] = target: eqBChE (Equus caballus, UniProt P81908); test: Butyrylcholinesterase inhibition assay; type: biochemical
[6] = for Prediction of CNS penetration: from PAMPA-BBB Pe; for BBB penetration in PAMPA assay: stated in words
[7] = in vitro; conditions: PAMPA
[8] = system: SH-SY5Y cells; test: Cell viability/neurotoxicity assay; type: cell-based, human
[9] = target: AChE; conditions: read-out: Ki AChE; non-competitive inhibitor; cited from earlier work

Chain of electric eel acetylcholinesterase (eeAChE) (O42275 24-633): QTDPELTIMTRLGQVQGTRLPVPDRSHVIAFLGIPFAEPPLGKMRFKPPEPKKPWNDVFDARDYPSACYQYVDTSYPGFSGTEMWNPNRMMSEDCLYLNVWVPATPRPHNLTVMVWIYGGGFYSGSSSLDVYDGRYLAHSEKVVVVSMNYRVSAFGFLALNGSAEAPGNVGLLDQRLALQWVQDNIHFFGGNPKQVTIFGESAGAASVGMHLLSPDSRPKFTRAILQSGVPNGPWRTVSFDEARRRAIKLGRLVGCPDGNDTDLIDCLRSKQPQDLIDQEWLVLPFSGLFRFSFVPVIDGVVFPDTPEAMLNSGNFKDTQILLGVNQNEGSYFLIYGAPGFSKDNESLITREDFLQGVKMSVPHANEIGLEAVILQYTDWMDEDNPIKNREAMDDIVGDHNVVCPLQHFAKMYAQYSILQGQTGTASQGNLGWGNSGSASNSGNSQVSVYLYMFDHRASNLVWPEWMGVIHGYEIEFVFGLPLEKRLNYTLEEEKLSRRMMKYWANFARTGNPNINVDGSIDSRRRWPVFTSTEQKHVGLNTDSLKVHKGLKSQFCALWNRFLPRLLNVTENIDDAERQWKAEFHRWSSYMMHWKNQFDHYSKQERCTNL
Chain of eqBChE (P81908 whole entry): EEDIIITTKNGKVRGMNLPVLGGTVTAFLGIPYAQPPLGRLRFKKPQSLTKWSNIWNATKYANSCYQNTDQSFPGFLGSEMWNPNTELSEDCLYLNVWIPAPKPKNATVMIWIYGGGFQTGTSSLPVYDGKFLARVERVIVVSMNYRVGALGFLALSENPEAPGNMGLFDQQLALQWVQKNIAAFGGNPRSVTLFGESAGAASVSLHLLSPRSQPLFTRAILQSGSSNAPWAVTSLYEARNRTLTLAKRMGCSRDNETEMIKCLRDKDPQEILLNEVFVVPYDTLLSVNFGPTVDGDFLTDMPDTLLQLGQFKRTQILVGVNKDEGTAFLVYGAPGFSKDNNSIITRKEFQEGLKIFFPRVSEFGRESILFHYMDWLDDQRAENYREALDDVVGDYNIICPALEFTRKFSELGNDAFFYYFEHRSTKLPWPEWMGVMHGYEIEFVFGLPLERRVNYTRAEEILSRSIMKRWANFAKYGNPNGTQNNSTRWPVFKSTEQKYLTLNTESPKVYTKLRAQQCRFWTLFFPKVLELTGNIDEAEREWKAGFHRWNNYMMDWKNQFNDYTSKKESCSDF
Chain of Aβ1–42 peptide (P05067 672-713): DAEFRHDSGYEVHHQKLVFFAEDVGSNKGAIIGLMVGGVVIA

Compound | IC50 [3] [µM] | IC50 [4] [µM] | SI (Selectivity index) [4] | IC50 [5] [µM] | IC50 [1] [µM] | other results
COc1cc(/C=C/C(=O)CC(=O)/C=C/c2ccc(O)c(OC)c2)ccc1O [Curcumin, reference compound] | – | – | – | – | – | inhibition of Aβ fibrils [1]: approximately 60%
C[C@]12CC[C@@H]3c4ccc(O)cc4CC[C@H]3[C@@H]1CCC2=O [oestrone] | – | – | – | – | – | Ki [2]: 50.8 µM
C[C@]12CC[C@@H]3c4ccc(O)cc4CC[C@H]3[C@@H]1CC[C@H]2O [Compound 4, α-estradiol] | – | – | – | – | – | Ki [2]: 40.4 µM
C[C@]12CCC(NC(=S)Nc3ccc(S(N)(=O)=O)cc3)CC1=CC[C@@H]1[C@@H]2CC[C@]2(C)C(C(=O)CNCCc3ccccc3)CC[C@@H]12 (stereo partly drawn) [Compound 24, 4-(3-((8S,9S,10R,13S,14S)-10,13-Dimethyl-17-(phenethylglycyl)-2,3,4,7,8,9,10,11,12,13,14,15,16,17-tetradeca-hydro-1H-cyclopenta[a]phenanthren-3-yl)thioureido)benzenesulfonamide] | 5.44 ± 0.14 | 1.61 ± 0.1 | 8.0 | 12.8 ± 0.45 | 29.6 ± 1.21 | –
CC(=O)C1CC[C@H]2[C@@H]3CC=C4CC(N)CC[C@]4(C)[C@H]3CC[C@]12C (stereo partly drawn) [Compound 12, 1-((8S,9S,10R,13S,14S)-3-amino-10,13-dimethyl-2,3,4,7,8,9,10,11,12,13,14,15,16,17-tetradecahydro-1H-cyclopenta[a]phenanthren-17-yl)ethan-1-one] | 73.2 ± 1.14 | 67.7 ± 1.09 | – | – | – | Prediction of CNS penetration [6]: High (‘CNS+’ (prediction of high BBB permeation); Pe (10^−6 cm s^−1) > 4.39); BBB penetration in PAMPA assay [6]: high BBB penetration; Papp [7]: 19.6 ×10⁻⁶ cm/s
C[C@]12CCC(NC(=S)Nc3ccc(S(N)(=O)=O)cc3)CC1=CC[C@@H]1[C@@H]2CC[C@]2(C)C(C(=O)CNCc3ccccc3)CC[C@@H]12 (stereo partly drawn) [Compound 25, 4-(3-((8S,9S,10R,13S,14S)-17-(Benzylglycyl)-10,13-di-methyl-2,3,4,7,8,9,10,11,12,13,14,15,16,17-tetradeca-hydro-1H-cyclopenta[a]phenanthren-3-yl)thioureido)benzenesulfonamide] | 1.02 ± 0.01 | 0.98 ± 0.1 | 11.5 | 11.27 ± 0.11 | 12.8 ± 0.15 | –
Cc1nnc2n1-c1ccc(Cl)cc1C(c1ccccc1)=NC2 [Alprazolam, reference compound] | – | – | – | – | – | Prediction of CNS penetration [6]: High (‘CNS+’ (prediction of high BBB permeation); Pe (10^−6 cm s^−1) > 4.39)
C[C@]12CCC(NC(=S)Nc3ccc(S(N)(=O)=O)cc3)CC1=CC[C@@H]1[C@@H]2CC[C@]2(C)C(C(=O)CNc3c4c(cc5ccccc35)CCCC4)CC[C@@H]12 (stereo partly drawn) [Compound 28, 4-(3-((8S,9S,10R,13S,14S)-10,13-Dimethyl-17-((1,2,3,4-tetrahydroanthracen-9-yl)glycyl)-2,3,4,7,8,9,10,11,12,13,14,15,16,17-tetradecahydro-1H-cyclopenta[a]phenanthren-3-yl)thioureido)benzenesulfonamide] | 31.8 ± 1.08 | 0.32 ± 0.01 | 42.2 | 13.5 ± 0.09 | 26.37 ± 0.25 | –
C[C@H](CCC(=O)O)[C@H]1CC[C@H]2[C@@H]3CC[C@@H]4C[C@H](O)CC[C@]4(C)[C@H]3C[C@H](O)[C@]12C [Compound 5, deoxycholic acid] | – | – | – | – | – | Ki [2]: 51 µM
C[C@]12CCC(NC(=S)Nc3ccc(S(N)(=O)=O)cc3)CC1=CC[C@@H]1[C@@H]2CC[C@]2(C)C(C(=O)CN3c4ccccc4Sc4ccccc43)CC[C@@H]12 (stereo partly drawn) [Compound 27, 4-(3-((8S,9S,10R,13S,14S)-17-(2-(10H-Phenothiazin-10-yl)acetyl)-10,13-dimethyl-2,3,4,7,8,9,10,11,12,13,14,15,16,17-tetradecahydro-1H-cyclopenta[a]phenanthren-3-yl)thioureido)benzenesulfonamide] | 5.18 ± 0.12 | 0.094 ± 0.002 | 166.7 | 15.01 ± 0.03 | 5.78 ± 0.07 | inhibition of Aβ fibrils [1]: 85%; protection of SH-SY5Y cells from the toxicity of the Aβ peptide ([8]; SH-SY5Y cells incubated with Aβ1–42): effectively protected; cytotoxicity ([8]; SH-SY5Y cells, 5 μM): completely non-cytotoxic; Prediction of CNS penetration [6]: High (‘CNS+’ (prediction of high BBB permeation); Pe (10^−6 cm s^−1) > 4.39); BBB penetration in PAMPA assay [6]: BBB penetrants; Papp [7]: 18.1 ×10⁻⁶ cm/s
CC(=O)C1CC[C@H]2[C@@H]3CC=C4CC(NC(=S)Nc5ccc(S(N)(=O)=O)cc5)CC[C@]4(C)[C@H]3CC[C@]12C (stereo partly drawn) [Compound 15, 4-(3-((8S,9S,10R,13S,14S)-17-Acetyl-10,13-dimethyl-2,3,4,7,8,9,10,11,12,13,14,15,16,17-tetradecahydro-1H-cyclopenta[a]phenanthren-3yl)thioureido)benzenesulfonamide] | 48.9 ± 1.37 | 13 ± 0.18 | 4.8 | 63 ± 1.23 | 9.25 ± 0.17 | inhibition of Aβ fibrils [1]: approximately 60%; viability at 5 µM ([8]; Homo sapiens, SH-SY5Y, read-out: cell viability): ~75%
isosarcodine | – | – | – | – | – | Ki [9]: 21.8 µM
CCn1cc(C(=O)O)c(=O)c2cc(F)c(N3CCNC(C)C3)c(F)c21 (stereo not shown) [Lomefloxacin, reference compound] | – | – | – | – | – | Prediction of CNS penetration [6]: No (‘CNS−’ (prediction of low BBB permeation); Pe (10^−6 cm s^−1) < 1.78)
hyocholic acid [Compound 3] | – | – | – | – | – | Ki [2]: 38.9 µM
